Measured values from patent EP4269424A1, “NOVEL ANTIVIRAL COMPOUNDS AND USE THEREOF” (priority 2022, dated 2023).
No end group written: not given here.

Key:
G3BP1 = format: binding, human

Q: For `CC[C@H](C)[C@H](NC(=O)CNC(=O)[C@H](CO)NC(=O)[C@H](C)NC(=O)[C@H](CC(C)C)NC(=O)[C@H](C)NC(=O)[C@H](CC(=O)O)NC(=O)[C@@H](NC(=O)[C@H](CCC(=O)O)NC(=O)[C@H](Cc1c[nH]cn1)NC(=O)[C@H](CCC(=O)O)NC(=O)[C@H](CC(=O)O)NC(=O)[C@H](Cc1ccccc1)NC(=O)[C@H](CC(=O)O)NC(=O)CNC(=O)[C@H](Cc1ccccc1)NC(=O)[C@@H](NC(=O)[C@H](CC(C)C)NC(=O)[C@H](CCCNC(=N)N)NC(=O)[C@H](CCCNC(=N)N)NC(=O)[C@H](CCCNC(=N)N)NC(=O)[C@H](CCC(N)=O)NC(=O)[C@H](CCCNC(=N)N)NC(=O)[C@H](CCCNC(=N)N)NC(=O)[C@H](CCCCN)NC(=O)[C@H](CCCCN)NC(=O)[C@H](CCCNC(=N)N)NC(=O)CNC(=O)[C@@H](N)Cc1ccc(O)cc1)[C@@H](C)O)C(C)C)C(=O)N[C@H](C(=O)N[C@@H](Cc1ccccc1)C(=O)NCC(=O)N[C@@H](CC(=O)O)C(=O)N[C@@H](Cc1ccccc1)C(=O)N[C@@H](CC(=O)O)C(=O)N[C@@H](CC(=O)O)C(=O)O)[C@@H](C)O` [G3BPi WT], which cell viability (Vero E6 cells) is on record?
A: not affected

Q: Which Kd (G3BP1) does the source give for `CC[C@H](C)[C@H](NC(=O)CNC(=O)[C@H](CO)NC(=O)[C@H](C)NC(=O)[C@H](CC(C)C)NC(=O)[C@H](C)NC(=O)[C@H](CCC(=O)O)NC(=O)[C@H](Cc1c[nH]cn1)NC(=O)[C@H](CCC(=O)O)NC(=O)[C@H](CC(=O)O)NC(=O)[C@H](Cc1ccccc1)NC(=O)[C@H](CC(=O)O)NC(=O)CNC(=O)[C@H](Cc1ccccc1)NC(=O)[C@@H](NC(=O)[C@@H](N)CC(C)C)[C@@H](C)O)C(=O)N[C@H](C(=O)N[C@@H](Cc1ccccc1)C(=O)NCC(=O)N[C@@H](CC(=O)O)C(=O)N[C@@H](Cc1ccccc1)C(=O)N[C@@H](CC(=O)O)C(=O)N[C@@H](CC(=O)O)C(=O)N[C@@H](Cc1c[nH]c2ccccc12)C(=O)O)[C@@H](C)O` [G3BPi spacer2] here?
A: 4.4 µM

Q: With “LTFGDFTGSTGSTGSTGITFGDFDDW [G3BPi spacer3]” as the compound, how does the Kd (G3BP1) read?
A: 2.4 µM
